In patent US6583177B2, “Leukotriene B4 antagonist compounds and method for treatment” (Ono Pharmaceutical Co., Ltd., priority 1994, dated 2003):
Like-named read-outs stand apart in the source and are kept apart here.

Columns and labels:
[1] = target: T1, PLA2 (derived from hog pancreas) (Sus scrofa, UniProt P00592); assay: Inhibitory activity on PLA2; format: biochemical; conditions: hog pancreas PLA2, 10PY-PC substrate, fluorescence, pH7.5
T1 construct: a solution of 10 mU/ml PLA2 (derived from hog pancreas) (50 μl); from tissue; host or cells: hog pancreas
T1 sequence (P00592 23-146): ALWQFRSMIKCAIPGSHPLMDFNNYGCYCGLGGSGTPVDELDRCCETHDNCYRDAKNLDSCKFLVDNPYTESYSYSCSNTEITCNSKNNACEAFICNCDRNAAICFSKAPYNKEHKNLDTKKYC
Procedure: (1) Inhibitory Activity on PLA2
A reaction solution including 50 mM tris-HCl buffer (pH7.5, 874 μl; containing 100 mM sodium chloride, 1 mM EDTA), 1M calciumchloride (6 μl), 1% bovine serum albumin (10 μl) and 2.5 mM 10PY-PC (10 μl), was prepared. To the solution were added a test compound in various concentration or water (50 μl), and a solution of 10 mU/ml PLA2 (derived from hog pancreas) (50 μl). The appearance of fluorescence was measured (Ex=345 nm, Em=396 nm). Percentage (%) of the strength of fluorescence in the presence of a test compound was calculated when the strength of that in the absence thereof was regarded as 100%, and therefrom IC50 value was calculated.
10PY-PC represents 3′-palmitoyl-2-(1-pyrenedecanoyl)-L-α-phosphatidylcholine, […]

[2] = target: T2, LTB4 receptor (Homo sapiens, UniProt Q15722); assay: Binding inhibition against 3H-LTB4 on the human polymorphonuclear leukocyte (PMN); conditions: percentage of inhibition of specific 3H-LTB4 (4nM) binding to human PMN, 0° C. for 20 min; formula (IB) compounds, Table 18
T2 construct: The reaction was started by addition of a thoroughly mixed PMN cell suspension (1.6×10^6 cells); endogenous in cells; host or cells: human polymorphonuclear leukocytes (PMN), whole-cell suspension
T2 sequence (Q15722 whole entry): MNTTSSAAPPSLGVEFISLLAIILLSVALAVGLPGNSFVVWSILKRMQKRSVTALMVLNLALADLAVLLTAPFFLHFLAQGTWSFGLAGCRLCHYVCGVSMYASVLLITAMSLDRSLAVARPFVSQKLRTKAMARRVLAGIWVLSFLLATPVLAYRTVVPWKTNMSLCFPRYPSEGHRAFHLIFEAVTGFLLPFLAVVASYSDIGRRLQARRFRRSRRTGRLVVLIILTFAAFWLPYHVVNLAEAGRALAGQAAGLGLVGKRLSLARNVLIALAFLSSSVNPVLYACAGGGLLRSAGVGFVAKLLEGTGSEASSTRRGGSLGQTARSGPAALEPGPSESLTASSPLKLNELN
Procedure: Binding Inhibition Against ^3H-LTB4 on the Human Polymorphonuclear Leukocyte (PMN)
0.049 ml Hanks balanced salt solution (HBSS), 0.001 ml test compound and 0.05 ml ^3H-LTB4 (4nM) were added to polypropylene tubes and mixed. The reaction was started by addition of a thoroughly mixed PMN cell suspension (1.6×10^6 cells), followed by incubation at 0° C. for 20 min. The reaction was terminated by the addition of ice-cold HBSS (2.5 ml). PMNs were harvested by vacuum filtration through Whatman GF/C glass fiber filters on a Brandel cell harvester (BRANDEL, M-24R). The filters were then washed 2 times to remove free ^3H-LTB4 with 2.5 ml of the ice-cold PBS (−) solution. The filters were transferred to each vial, and equilibrated after adding 8 ml ACS II cocktail (Amersham). The radioactivity was measured by liquid scintillation counter (Aloka, LSC-5100).
Specific binding of ^3H-LTB4 to the LTB4 receptor was defined as total binding minus nonspecific binding. Nonspecific binding was the amount of ^3H-LTB4 binding in the presence of 1.5 μM LTB4 instead of the test compound. The inhibitory effect of test compound was calculated from the following equation.
The percentage of inhibition (%)=100−(B1/B0×100)
B1: Specific ^3H-LTB4 binding in presence of test compound
B0: Specific ^3H-LTB4 binding in absence of test compound
The compounds of the formula (IB), of the present invention have an antagonistic activity on LTB4. The results which are measured by method as hereinbefore described in Example 1(A), are shown the following Table 18.

[3] = target: T3, trypsin (derived from bovine pancreas) (Bos taurus, UniProt P00760); assay: Inhibitory activity on trypsin; format: biochemical
T3 construct: a solution of 80 mU/ml trypsin (derived from bovine pancreas) (50 μl); from tissue; host or cells: bovine pancreas
T3 sequence (P00760 24-246): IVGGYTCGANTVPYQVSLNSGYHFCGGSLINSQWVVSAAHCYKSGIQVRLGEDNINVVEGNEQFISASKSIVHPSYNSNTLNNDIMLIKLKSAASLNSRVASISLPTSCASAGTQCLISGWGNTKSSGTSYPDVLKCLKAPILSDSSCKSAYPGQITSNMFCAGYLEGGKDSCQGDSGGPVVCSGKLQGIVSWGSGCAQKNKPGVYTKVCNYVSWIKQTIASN
Procedure: (2) Inhibitory Activity on Trypsin
To a mixture of a 0.2 M HEPES.sodium hydroxide buffer solution (pH 8.0, 100 μl) and distilled water (640 μl), were added a test compound in various concentration or water (10 μl), and a solution of 80 mU/ml trypsin (derived from bovine pancreas) (50 μl) and then the mixture was preincubated for one minute at 30° C. To the solution thus obtained was added 2.5 mM BAPNA (200 μl) and the mixture was incubated at 30° C. The absorbance at 405 nm was measured. Percentage (%) of the absorbance in the presence of a test compound was calculated when the absorbance in the absence thereof was regarded as 100%, and therefrom IC50 value was calculated.
HEPES represents 4-2-hydroxyethyl)-1-piperazineethanesulfonic acid, and
BAPNA represents α-N-benzoyl-DL-arginine-p-nitroanilide hydrochloride.

[4] = bovine pancreas trypsin, BAPNA substrate, 30° C., pH 8.0, read-out: inhibitory activity on trypsin IC50

| IC50 [1] [µM] | inhibition [2] [%] | IC50 [3, 4] [µM] | SMILES | IC50 [3] [µM] |
| --- | --- | --- | --- | --- |
| 12 | 85.8 | 0.14 | C=CCC(NC(=O)/C(C)=C/c1ccc(C(=O)Oc2ccc(C(=N)N)cc2)cc1)(C(=O)OCC)C(=O)OCC [Example 2(o)] |  |
| 53 | 89.6 | 0.16 | CCOC(=O)CC[C@H](NC(=O)c1ccc(/C=C(\C)C(=O)Oc2ccc(C(=N)N)cc2)cc1)C(=O)OCC [Example 2(g)] |  |
| 8.1 | 103 | 0.26 | CCOC(=O)CN(C(=O)c1ccc(C(=O)Oc2ccc3c(c2)CCC(C(=N)N)=C3)cc1)c1ccccc1 [Example 2(c)] |  |
| 2.6 | 92 | 0.4 | N=C(N)C1=Cc2ccc(OC(=O)c3ccc(C(=O)N(Cc4ccccc4)c4ccccc4)cc3)cc2CC1 [Example 2(a)] |  |
| 20 | 97.7 | 0.1 | CCOC(=O)CC(NC(=O)/C(C)=C/c1ccc(C(=O)Oc2ccc(C(=N)N)cc2)cc1)(C(=O)OCC)C(=O)OCC [Example 2(k)] |  |
| 10 | 82.8 | 0.16 | C=CCN(CC(=O)OCC)C(=O)/C=C/C=C/c1ccc(C(=O)Oc2ccc(C(=N)N)cc2)cc1 [Example 2(n)] |  |
| 3.8 | 97.9 | 0.56 | N=C(N)C1=Cc2ccc(OC(=O)c3ccc(C(=O)N(CC(=O)OCc4ccccc4)c4ccccc4)cc3)cc2CC1 [Example 2(b)] |  |
| 8.5 | 94.5 | 0.34 | CCOC(=O)[C@H](COC(=O)c1ccccc1)NC(=O)/C(C)=C/c1ccc(C(=O)Oc2ccc(C(=N)N)cc2)cc1 [Example 2(e)] |  |
| 44 | 83 | 0.16 | C=CCN(CC(=O)OCC)C(=O)C(=Cc1ccc(C(=O)Oc2ccc(C(=N)N)cc2)cc1)C(=O)OCC [Example 2(s)] |  |
| 11 | 85.4 | 0.15 | CCOC(=O)/C=C/CC(NC(=O)/C(C)=C/c1ccc(C(=O)Oc2ccc(C(=N)N)cc2)cc1)(C(=O)OCC)C(=O)OCC [Example 2(h)] |  |
|  | 89.7 | 0.13 | N=C(N)c1ccc(OC(=O)c2ccc(CN3CCC(c4ccccc4)CC3)cc2)cc1 [Compound 5] |  |
| 59 | 69.6 | 0.14 | C=CCN(CC(=O)OCC)C(=O)c1ccc(C(=O)Oc2ccc(/C=C/C(=N)N)cc2)cc1 [Example 2(i)] |  |
| 46 | 80.1 | 0.16 | CCOC(=O)CC[C@H](NC(=O)C(=Cc1ccc(C(=O)Oc2ccc(C(=N)N)cc2)cc1)C(=O)OCC)C(=O)OCC [Example 2(r)] |  |
| 8.7 | 99.3 | 0.14 | CCOC(=O)CN(C(=O)c1ccc(C(=O)Oc2ccc(/C=C/C(=N)N)cc2)cc1)c1ccccc1 [Example 2(d)] |  |
| 34 | 98 | 0.16 | C=CCN(CC(=O)OCC)C(=O)c1ccc(/C(C)=C/C(=O)Oc2ccc(C(=N)N)cc2)cc1 [Example 2(q)] |  |
|  | 62.5 | 0.15 | N=C(N)c1ccc(OC(=O)c2ccc(Cn3ccnc3-c3ccccc3)cc2)cc1 [Example 5(a)] |  |
| 29 | 95.2 | 0.13 | CCOC(=O)CC[C@H](NC(=O)c1ccc(/C(C)=C/C(=O)Oc2ccc(C(=N)N)cc2)cc1)C(=O)OCC [Example 2(p)] |  |
| 4.5 | 67.8 | 0.17 | CCOC(=O)CN(Cc1ccccc1)Cc1ccc(C(=O)Oc2ccc(C(=N)N)cc2)cc1 [Compound 6] |  |
| 94 | 81 | 0.12 | C=CCN(CC(=O)OCC)C(=O)c1ccc(/C=C(\C)C(=O)Oc2ccc(C(=N)N)cc2)cc1 [Example 2(l)] |  |
|  | 55.4 | 0.12 | CCOC(=O)CC[C@H](NC(=O)COc1ccc(C(=O)Oc2ccc(C(=N)N)cc2)cc1)C(=O)OCC [Example 2(j)] |  |
| 18 | 89.2 | 0.17 | CCOC(=O)CC[C@H](NC(=O)/C=C/C=C/c1ccc(C(=O)Oc2ccc(C(=N)N)cc2)cc1)C(=O)OCC [Example 2(m)] |  |
|  | 79.7 | 0.19 | C=CCN(CC(=O)OCC)C(=O)COc1ccc(C(=O)Oc2ccc(C(=N)N)cc2)cc1 [Compound 2] |  |
| 70 | 91.8 | 0.1 | CCOC(=O)CC[C@H](NC(=O)c1ccc(/C=C/C(=O)Oc2ccc(C(=N)N)cc2)cc1)C(=O)OCC [Example 2(f)] |  |

| SMILES | IC50 [1] [µM] | inhibition [2] [%] | IC50 [3, 4] [µM] | IC50 [3] [µM] |
| --- | --- | --- | --- | --- |
| CCOP(=O)(CCCc1ccccc1)Cc1ccc(C(=O)Oc2ccc(C(=N)N)cc2)cc1 (stereo not shown) [Compound 4] | 41 | 73.1 | 0.16 |  |
| CCOP(=O)(/C=C/c1ccc(C(=O)Oc2ccc(C(=N)N)cc2)cc1)OCC [Example 4(a)] |  | 52 |  | 0.14 |
